From patent US8796285B2, “Pyrazolo [1,5-a]-pyrimidones derivatives and pharmaceutical compositions and uses thereof” (Hebei Medical University, priority 2009, dated 2014)
Read-outs that look alike come from different tables or passages of the source.

Assays:
male mice [1] = assay: The maximum electric shock experiment; format: in vivo; details: Mus musculus, corneal electrode 26 mA 0.4 second, forced feeding 10, 25, 50 mg/kg, read-out: ED50 anticonvulsant effect
Text: “The maximum electric shock” experiment: The experiment uses electrical method to measure non-specific CNS-induced seizures.
Pharmaceutical composition used: the compound number 21 for the testing group, phenyloin for positive control group.
Experimental method: Apply corneal electrode in male mice of each group, apply 26 mA square wave current for 0.4 second, and forced feeding the pharmaceutical composition after inducing convulsion which is characterized by hindlimb tonic extension (Wlaz et al., Epilepsy Research 1998, 30, 219-229). Dosages for the testing group are: 10 mg/kg (body weight) per administration, 25 mg/kg (body weight) per administration, and 50 mg/kg (body weight) per administration respectively. For control group, dosage is 25 mg/kg (body weight) per administration.

KCNQ2/3 = target: T1, KCNQ2/3 (Homo sapiens, UniProt O43525+O43526); assay: High throughput atomic absorption Rb+ efflux testing, KCNQ2/3; format: cell-based; details: Rb+ efflux by atomic absorption
T1 construct: expressed in transfected cells

rat = assay: Amygdala kindling experiment; format: in vivo; details: vs pre-administration, p<0.01 vs control group
Text: This experiment is used to measure the disease progress, when further stimulation is applied, the seizure level of the animal in this model will be increased as in the situation of normal animal.
Pharmaceutical composition used: suspended solution of sodium carboxymethyl cellulose containing the compound number 21 for the testing group, suspended solution of sodium carboxymethyl cellulose for the positive control group, with concentration equal to the suspended solution of the testing group.
Testing method: perform surgery to implant tri-polar electrode into dorsolateral amygdale of rat. After surgery, allow the animal to recover, then administer testing compound or pharmaceutical solvent agent of different dosages to rat of different groups. The animal is treated with electrical stimulation at a value which is +25 μA of the initial discharge threshold on a daily basis for 3-5 weeks, and record each seizure incidence in which the level of seizure, the duration of the seizure, and electrical duration after discharge are recorded (Racine. Electroencephalography and Clinical Neurophysiology 1972, 32, 281-294). Dosage level is the same as that of exemplary embodiment 11.

KCNQ2/Q3 channel = KCNQ2/Q3 channel (Homo sapiens, UniProt O43525+O43526); assay: Patch-clamp electrophysiology testing, CHO cell of KCNQ2/Q3 channel; format: cell-based; details: clamping voltage -80 mV, depolarized to -40 mV, FIG. 5a
Text: (2) Testing method: Culture of ovary cell of Chinese hamster (CHO, Chinese Hamster Overy): steadily transfer the CHO cell culture of KCNQ2/Q3 channel into a composition containing 10% fetal bovine serum, 100 U/ml penicillin and DMEM culture solution of streptomycin, and allow digestion passage of trypsin. Spread the cell on a 12 mm round-shaped coverslip and culture on a 24-well cell culture plate.
Record membrane current using patch-clamp technique: The patch-clamp amplifier is HEKA-EPC10. The electrode solution uses amphotericin B (final concentration of 0.1˜0.2 mg/ml) for perforated patch clamp recording. After polishing the microelectrodes, inject the electrode solution and control the to 2˜4MΩ. The electrode solution used for recording CHO cell are (mM): KCl 160, HEPES 5, MgCl2 3, CaCl2 1, EGTA 2, with pH adjusted to 7.4 with KOH; Extracellular electrode composition are (mM): NaCl 160, KCl 2.5, HEPES 10, glucose 8, MgCl2 1, CaCl2 5. After the cell membrane and microelectrodes form a high resistance seal, clamp at −80 mV, wait 5-10 min and record the readings according to different activation procedures.

[2] = target: KCNQ4 potassium ion channel (Homo sapiens, UniProt P56696); assay: High throughput atomic absorption Rb+ efflux testing, CHO cell of KCNQ4 channel; format: cell-based; details: for EC50: CHO cell of KCNQ4 channel
Text: Atomic absorption Rb^+ efflux testing is a fast and safe selection method for high throughput potassium channel moderator, and is characterized in that the activity of the ion channel and the control effect of the opener are directly reflected. Rb and K have similar atomic size, and potassium ion channel is permeable to Rb^+. By testing concentration of the Rb^+ efflux, a status of the potassium channel, which is an open status or a close status, can be determined. Rb has specific absorption at 780 nm, and Rb^+ concentration can be determined by atomic absorption spectroscopy. Accordingly, analysis method of atomic absorption spectroscopy can be used to select the opener/inhibitor of potassium channel through high throughput of Rb^+ efflux.
Stable cell transfer of CHO cell of KCNQ4 channel at log phase and inoculate in 96-well culture plate at a density of 2×10^4 unit/well. Each concentration has a triplicate-hole setting, and a control setting with solvent of corresponding concentration. Allow growth against the well-wall overnight, then discard the culture medium, add 200 μl loading buffer which contains RbCl, and culture in 5% CO2 at 37° C. for 3 hours. Then remove the loading buffer and wash with wash buffer for 3 times. Screen for the KCNQ opener, dilute testing compound with depolarization buffer, add 200 μl of the above solvent into the cell and allow reaction for 10 minutes. Incubate for 10 minutes, then carefully draw 200 μl supernatant to another 96-well culture plate, use ICR8000 atomic absorption spectrometry to determine the Rb^+ atomic absorption at 780 nm. Based on the equation Fsupern=(Rb_supern/cpd/Rb_supern/d)×100, calculate the corresponding rate of efflux.

male mice [3] = assay: Pilocarpine-induced seizures experiment; format: in vivo; details: Mus musculus, ip, pilocarpine 250 mg/kg i.p., compound by intraperitoneal injection 1, 5, 10 mg/kg, read-out: ED50 anti-epilepsy effect
Protocol: Pilocarpine-induced seizure is, in general, difficult to treat by using the existing anti-epileptic drug, so it belongs to “drug-resistance epilepsy” model.
Pharmaceutical composition used: the compound number 24 for the testing group, phenyloin for positive control group.
Experimental method: Inject 250 mg/kg pilocarpine into the male mice of each group by intraperitoneal injection, induce pilocarpine-induced seizure, observe walking abnormality caused by seizures activities in 30 minutes (Starr et al, Pharmacology Biochemistry and Behavior 1993, 45, 321-325). Apply intraperitoneal injection. Dosages for the testing group are: 1 mg/kg (body weight) per administration, 5 mg/kg (body weight) per administration, and 10 mg/kg (body weight) per administration respectively. For control group, dosage is 50 mg/kg (body weight) per administration.

EC50 (KCNQ2/3)	EC50 ([2]; Rb+ efflux by atomic absorption, read-out: KCNQ4)	activating effect on the CHO cell of the KCNQ4 potassium ion channel ([2]; Rb+ efflux at 0.03, 0.1, 0.6, 1, 3 and 10 μM, FIG. 4)	EC50 ([2]; Rb+ efflux, 0.03-10 μM, FIG. 4, read-out: EC50)	SMILES	ED50 (male mice [1])	seizure level (rat)	time period after discharge process of amygdala (rat)	activation of KCNQ2/3 channel current (KCNQ2/Q3 channel)	ED50 (male mice [3])
3610 ± 6020 nM	23900 ± 430 nM	–	–	O=c1cc(CCl)[nH]c2c(-c3ccccc3)c(C(F)(F)F)nn12 [Compound 21, 5-chloromethyl-3-phenyl-2-trifluoromethylpyrazolo[1,5-a]pyrimidin-7(4H)-one]	12.2 ± 0.08 mg/kg	increased in the seizure level	shorten time period after discharge process of amygdale	can activate the KCNQ2/3 channel current significantly	–
78 ± 20 nM	–	dose-dependent activating effect	210 ± 80 nM	O=c1cc(-c2cc(F)c(Cl)nc2Cl)[nH]c2c(-c3ccccc3)c(C(F)(F)F)nn12 [Compound 24]	–	–	–	–	5.1 ± 0.05 mg/kg
